From patent US8138158B2, “Compositions and methods for therapy for diseases characterized by defective chloride transport” (Children's Hospital & Research Center at Oakland, priority 1997, dated 2012)

Experiments:
[1] = test system: wildtype CFTR-corrected CF15 monolayers; assay: Short-circuit current across wildtype CFTR-corrected CF15 monolayers; type: cell-based, human; conditions: D-isoascorbate 300 μm; amiloride; n=2
Method: (§1) Human airway cell culture. The human submucosal serous gland-like cell line Calu-3, the CF nasal epithelial cell line homozygous for ΔF508 CFTR (CF15) and human tracheal primary cultures (hTE) were cultured as described (Jefferson, D. M., Valentich, J. D., Marini, F. C., Grubman, S. A., Iannuzzi, M. C., Dorkin, H. L., Li, M., Klinger, K. W. & Welsh, M. J. (1990) Am. J. Physiol. 259, L496-L505. Sachs, L. A., Finkbeiner, W. E. & Widdicombe, J. H. (2003) In Vitro Cell Dev. Biol. Anim. 39, 56-62.). Wildtype CFTR-corrected CF15 cells were generated via adenovirus-mediated gene transfer. Growth media were nominally free of ascorbic acid (<10 μm, University Pathology Inc., Salt Lake City, Utah). For transepithelial measurements cells were grown on permeable filter inserts and used after 3 to 10 days.
(§2) Short-circuit current measurement. Calu-3 or CF15 cells were grown as monolayers, mounted in Ussing chambers and short-circuit current (ISC) was recorded as described (Illek, B. & Fischer, H. (1998) Am. J. Physiol. 275, L902-L910). At 20-50 second intervals, transepithelial voltage was clamped from zero to 2 mV and the transepithelial resistance (Rte) was calculated. A serosa-to-mucosa-directed Cl gradient was applied. Serosal Ussing chamber solution contained (in mM): 120 NaCl, 20 NaHCO3, 5 KHCO3, 1.2 NaH2PO4, 5.6 glucose, 2.5 CaCl2, 1.2 MgCl2. In mucosal Ussing chamber solutions, all Cl salts were exchanged for gluconate salts.
(§3) The CF15 cell line was used to determine whether ascorbate-stimulated Cl currents were solely mediated by the CFTR Cl conductance. The CF15 cell line is characterized by the absence of functional CFTR in the apical plasma membrane but the presence of other non-CFTR Cl conductances (Jefferson, D. M., Valentich, J. D., Marini, F. C., Grubman, S. A., Iannuzzi, M. C., Dorkin, H. L., Li, M., Klinger, K. W. & Welsh, M. J. (1990) Am. J. Physiol. 259, L496-L505). A concentration of L-ascorbic acid that lay within the upper plateau of the dose response curve (500 μm) was applied and ascorbate-stimulated Cl currents in CF15 vs. wildtype CFTR-corrected CF15 monolayers was compared (FIG. 23A). […] The defective response to L-ascorbic acid was reversed in wildtype CFTR-corrected CF15 epithelia such that ISC responded promptly to L-ascorbic acid (ΔISC=7.5±0.5 μA/cm^2, n=6). The ascorbate-stimulated current was further activated by the cAMP agonist forskolin and total stimulated ISC averaged 12.1±1.1 μA/cm^2 (FIG. 4B). The ascorbate-stimulated Cl current reached 60±15% of the forskolin-stimulated current in CFTR-corrected CF15 monolayers, which was close to the corresponding findings in Calu-3 monolayers (68%, see FIG. 21A). The absence of ascorbate-stimulated Cl currents in CF15 monolayers supports the notion that non-CFTR Cl conductances were not activated by L-ascorbic acid.
(§4) In this example, chloride currents stimulated by L-ascorbate or D-ascorbate were measured in CF15 versus. wildtype CFTR-corrected CF15 monolayers. A concentration of L-ascorbate (1 mM) or D-isoascorbate (300 μm) that lay within the upper plateau of the dose-response curve was applied to cells and the resulting chloride currents stimulated in CF15 versus wildtype CFTR-corrected CF15 monolayers were measured (FIG. 25 A-H). All experiments were performed in the presence of the sodium channel blocker amiloride. […]

[2] = target: T1, ΔF508 CFTR (Mus musculus, UniProt P26361, DEL508-508); assay: Rectal potential difference (RPD) in mice homozygous for ΔF508 CFTR; type: in vivo
T1 construct: from tissue; host or cells: rectal mucosa of living ΔF508 CF mice (C57Bl6/J), TMAO-treated or water-injected
From the text: CF mice and rectal potential difference (RPD) measurements. Gene-targeted mice homozygous for the ΔF508 mutation (C57Bl6/J) received Golytely® (Braintree Laboratories, Inc.), a diarrhetic supplement, in the drinking water to increase their lifespan (Clarke, L. L., Gawenis, L. R., Franklin, C. L. & Harline, M. C. (1996) Lab. Anim. Sci. 46, 612-8). To correct the maturation defect of ΔF508 CFTR we used the chemical chaperone trimethylamine oxide (TMAO) (Brown, C. R., Hong-Brown, L. Q., Biwersi, J., Verkman, A. S. & Welch, W. J. (1996) Cell Stress Chaperones 1, 117-25). CF mice were injected with 4 mg/g TMAO from a 4 M stock solution every 8 hours for 24 hours, which is a regimen to partially correct the ΔF508 defect in CF mice (Fischer, H., Barbry, P., Illek, B., Sartori, C., Fukuda, N. & Matthay, M. A. (2001) Am. J. Physiol. 281, L52-L57). Controls were water-injected. The RPD assay was performed on mice that were anesthetized with 0.1 mg/g body weight ketamine and 0.01 mg/g body weight azepromazine. RPD was sensed with a 1 M NaCl agar bridge inserted ˜1 cm into the rectum vs. a subcutaneous needle filled with 1 M NaCl. Measurements were performed in Cl free solution containing 100 μm amiloride and 5 mM Ba(OH)2 to isolate the Cl-selective RPD.
In this Example, it was determined whether L-ascorbic acid affected the functional activation of ΔF508 CFTR in a CF-affected organism in vivo. Using gene-targeted mice homozygous for the ΔF508 mutation it was shown previously that the osmolyte trimethylamine oxide (TMAO) effectively supported ΔF508 CFTR trafficking in vivo (Fischer, H., Barbry, P., Illek, B., Sartori, C., Fukuda, N. & Matthay, M. A. (2001) Am. J. Physiol. 281, L52-L57). Accordingly, the effect of L-ascorbic acid was tested in homozygous ΔF508 CF mice treated with TMAO by using the RPD assay as a functional end point measure for mutant ΔF508-CFTR function. FIG. 24A illustrates that TMAO-treated CF mice manifested a detectable response to a maximal dose of L-ascorbic acid (1 mM) or its epimer D-isoascorbic acid (300 μM) and RPD hyperpolarized on average by −3.2±0.8 mV (n=4) and −3.6±1.8 mV (n=3), respectively (FIG. 24B).

[3] = test system: CF15 monolayers homozygous for ΔF508 CFTR; assay: Short-circuit current across CF15 monolayers homozygous for ΔF508 CFTR; type: cell-based, human; conditions: D-isoascorbate 300 μm
Method: as §1, §2
as §3, with “The absence of ascorbate-stimulated Cl currents in CF15 monolayers supports the notion that non-CFTR Cl conductances were not activated by L-ascorbic acid.” left out
as §4, with “A-H).” for “A-H). All experiments were performed in the presence of the sodium channel blocker amiloride.”
The functional activation of ΔF508 CFTR was determined after correction of the underlying trafficking defect of ΔF508 CFTR using S-Nitrosoglutathione (Zaman, et al., Biochem Biophys Res Commun 284: 65-70, 2001; Snyder, et al., American Journal of Respiratory and Critical Care Medicine 165: 922-6, 2002; Andersson, et al. Biochemical and Biophysical Research Communication 297(3): 552-557, 2002.). […]

[4] = test system: Calu-3 cell monolayer; assay: Short-circuit current across α-toxin-permeabilized Calu-3 cell monolayer in Ussing chamber; type: cell-based, human; conditions: tissue first stimulated with forskolin 10 μM; biochanin A 100 and 300 μM
From the text: Within one in vitro assay, the level of chloride transport may be evaluated using mammalian pulmonary cell lines, such as Calu-3 cells, or primary human, rat, mouse and bovine tracheal and alveolar cell cultures, as well as intestinal epithelial cell lines, such as T84, HT-29, Caco-2 and cell lines of other epithelial origin such as MDCK and FRT. In general, such assays employ cell monolayers, which may be prepared by standard cell culture techniques. Within such systems, CFTR-mediated chloride current may be monitored in an Ussing chamber using intact epithelia. Anion efflux assays may be used to detect CFTR-mediated transport (e.g., iodide efflux, see for example RNA. 2003 October; 9(10): 1290-7). Additionally, chloride transport (or generally airway surface liquid composition), can be evaluated using any number of indicators such as described in J Gen Physiol. 2003 November; 122(5): 511-9. Alternatively, chloride transport may be evaluated using epithelial tissue in which the basolateral membrane is permeabilized with anion-selective ionophores such as nystatin, amphotericin B or Staphylococcus aureus α-toxin, and in which a chloride gradient is imposed across the apical membrane (see Illek et al., Am. J. Physiol. 270:C265-75, 1996). In either system, chloride transport is evaluated in the presence and absence of a test compound (i.e., a flavone or isoflavone, or ascorbate or derivative thereof), and those compounds that stimulate chloride transport as described above may be used within the methods provided herein.
A Calu-3 cell monolayer was prepared in an Ussing chamber as described by Illek et al., Am. J. Physiol. 270:C265-275, 1996. […]
To evaluate the effect of biochanin A, a Calu-3 cell monolayer was prepared and permeabilized as described above. […] The effect of biochanin A (Bio, 100 and 300 μM) on short-circuit current (ISC) across the Calu-3 monolayer was evaluated in an Ussing chamber.

[5] = test system: Calu-3 monolayers; assay: Transepithelial chloride currents in forskolin-prestimulated Calu-3 monolayers; type: cell-based, human; conditions: prestimulated with 10 μM forskolin; compound at 100 μM
Method: FIGS. 13A-13C illustrate the effect of additional representative flavonoids and isoflavonoids on chloride current in epithelial cells. FIG. 13A is a graph showing the stimulation of transepithelial chloride currents by reservatrol (100 μM), flavanone (100 μM), flavone (200 μM), apigenin (20 μM), apigenin 7-O-neohesperidoside (30 μM), kaempferol (20 μM), fisetin (100 μM), quercetin (30 μM), rutin (30 μM), genistein (30 μM), daidzein (50 μM), biochanin A (100 μM) and prunetin (100 μM) in Calu-3 monolayers. Experiments were performed in the presence of 10 μM forskolin. Stimulated currents are plotted relative to forskolin stimulated increase (forskolin stimulated currents are 100%). FIG. 13B is a recording showing the effect of 7,4′-dihydroxyflavone on chloride current in unstimulated tissue. […] Increasing concentrations of 7,4′-dihydroxyflavone (as indicated in μM) were added to mucosal side and dose-dependently stimulated chloride currents. Currents were recorded with a serosal-to-mucosal chloride gradient at 0 mV and pulses were obtained at 2 mV. FIG. 13C is a recording illustrating the effect of trimethoxy-apigenin. […] Increasing concentrations of trimethoxy-apigenin (as indicated in μM) were added to mucosal side and dose-dependently stimulated chloride currents. Experiment was performed on unstimulated tissue. Currents were recorded with a serosal-to-mucosal chloride gradient at 0 mV and pulses were obtained at 2 mV.
Airway epithelial cells were prestimulated with 10 μM forskolin. The percent increase in chloride current was then determined following treatment with a series of polyphenolic compounds. FIG. 13A summarizes the stimulatory effect of these compounds.

T1 sequence (P26361 with tags, fused parts or gaps DEL508-508): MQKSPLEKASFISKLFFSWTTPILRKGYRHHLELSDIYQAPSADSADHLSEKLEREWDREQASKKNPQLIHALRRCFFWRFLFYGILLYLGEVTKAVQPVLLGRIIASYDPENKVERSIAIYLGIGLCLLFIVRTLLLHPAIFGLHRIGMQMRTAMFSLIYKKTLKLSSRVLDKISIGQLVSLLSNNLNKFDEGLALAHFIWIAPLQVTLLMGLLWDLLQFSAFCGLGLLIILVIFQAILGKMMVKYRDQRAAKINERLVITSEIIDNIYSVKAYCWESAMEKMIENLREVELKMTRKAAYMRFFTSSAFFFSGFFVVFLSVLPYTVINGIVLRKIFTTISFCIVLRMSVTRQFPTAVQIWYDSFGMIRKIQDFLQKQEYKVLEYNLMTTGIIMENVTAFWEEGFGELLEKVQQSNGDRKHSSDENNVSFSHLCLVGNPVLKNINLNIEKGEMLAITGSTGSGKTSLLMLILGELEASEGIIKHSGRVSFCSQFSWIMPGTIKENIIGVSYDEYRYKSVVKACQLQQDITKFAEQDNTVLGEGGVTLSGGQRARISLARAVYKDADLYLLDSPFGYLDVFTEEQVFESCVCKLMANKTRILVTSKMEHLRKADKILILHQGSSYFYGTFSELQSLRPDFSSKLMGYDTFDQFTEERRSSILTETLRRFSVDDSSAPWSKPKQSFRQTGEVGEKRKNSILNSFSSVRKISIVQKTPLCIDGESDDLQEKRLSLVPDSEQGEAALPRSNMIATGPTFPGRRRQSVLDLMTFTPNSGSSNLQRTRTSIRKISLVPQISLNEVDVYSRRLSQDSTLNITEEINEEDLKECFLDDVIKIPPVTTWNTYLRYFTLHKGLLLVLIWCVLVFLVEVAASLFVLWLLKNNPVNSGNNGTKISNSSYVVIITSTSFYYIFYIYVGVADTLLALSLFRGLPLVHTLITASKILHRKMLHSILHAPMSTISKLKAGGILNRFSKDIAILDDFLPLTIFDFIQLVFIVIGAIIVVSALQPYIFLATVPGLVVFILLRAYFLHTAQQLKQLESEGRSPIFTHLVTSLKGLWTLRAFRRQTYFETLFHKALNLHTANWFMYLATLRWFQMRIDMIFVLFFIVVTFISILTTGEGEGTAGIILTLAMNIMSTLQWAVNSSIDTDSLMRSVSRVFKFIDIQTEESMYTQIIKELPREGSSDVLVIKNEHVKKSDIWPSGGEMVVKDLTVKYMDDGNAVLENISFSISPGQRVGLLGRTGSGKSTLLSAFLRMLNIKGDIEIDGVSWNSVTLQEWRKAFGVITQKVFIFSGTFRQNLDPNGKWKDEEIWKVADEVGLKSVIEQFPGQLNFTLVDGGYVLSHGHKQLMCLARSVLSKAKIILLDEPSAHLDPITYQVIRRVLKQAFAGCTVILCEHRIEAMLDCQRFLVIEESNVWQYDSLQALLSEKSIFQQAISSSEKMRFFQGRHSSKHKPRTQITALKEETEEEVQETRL

O=C1O[C@H]([C@H](O)CO)C(O)=C1O [D-isoascorbic acid]
ΔIsc [1]: 6.6±1.7 μA/cm^2
RPD hyperpolarized on average by ([2]; CF mice treated with 4 mg/g TMAO for 24 hours, D-isoascorbic acid 300 μM, n=3): −3.6±1.8 mV
ΔRPD ([2]; water-injected control CF mice, L-ascorbic acid or D-isoascorbic acid, n=9): −1.1±0.4 mV
transepithelial chloride currents increased on average by ([3]; CF15 treated with 1 mM SNOG for 5-24 hours, n=8): 3.1±0.5
ΔIsc ([3]; untreated CF epithelia, amiloride, n=7): 0.7±1.0 μA/cm^2

C[N+](C)(C)[O-] [TMAO, trimethylamine oxide, reference compound]
increase of ascorbate- and isoascorbate-stimulated RPD compared to untreated CF mice ([2]; TMAO 4 mg/g every 8 hours for 24 hours): approximately 3 fold

COc1ccc(-c2coc3cc(O)cc(O)c3c2=O)cc1 [biochanin A, 4′-methoxy-5,7-dihydroxyisoflavone]
short-circuit current (ISC), chloride secretion [4]: further stimulated chloride secretion
chloride currents further stimulated to (forskolin stimulated currents are 100%) [5]: 139%
